Data: patent US20050153870A1, “Medicinal composition for diagnosis, prevention, or therapy of multiple risk factor syndrome” (priority 2002, published 2005)

Test system: non-insulin dependent type II diabetes patients
Test: Clinical test II
Format: in vivo, human
Conditions: for Body weight: week 0: 61.4 ± 10.21, in kg; for Serum neutral fat: week 0: 199.6 ± 88.29; for number of patients, Feeling of weariness Absent: before medication 0 of 25; for number of patients, Large amount of urine excretion Absent: before medication 0 of 30; for number of patients, Feeling of fatigue Absent: before medication 1 of 15; for number of patients, Throat dry Absent: before medication 1 of 30; for number of patients, Pain in the calf of leg Absent: before medication 4 of 16; for number of patients, Pain in the calf of leg Present: before medication 12 of 16; for number of patients, Feeling of fatigue Present: before medication 14 of 15; for number of patients, Feeling of weariness Present: before medication 25 of 25; for number of patients, Throat dry Present: before medication 29 of 30; for number of patients, Large amount of urine excretion Present: before medication 30 of 30
Experimental: On the other hand, Clinical test II was performed in a group of 79 participants from non-insulin dependent diabetic patients.
79 non-insulin dependent type II diabetes patients whose blood sugar is well-controlled under dietary therapy (all were mongoloid Japanese) participated in Clinical test II. They were forbidden to use sulfonyl urea and biguanide agent which is a therapeutic agent for type II diabetes, and a fibrate series medicament, nicotinic acid, and probucol which is a serum fat decreasing agent; however use of an antihypertensive agent is not particularly prohibited. They participated on a voluntary basis after they signed informed consent for clinical test participation, which was proposed by a medical institution based on the Helsinki declaration. The participants consisted of 26 males and 53 females. An average age at the sign-up time was 58±9.9 years old (average value±standard deviation), ranging from 37 to 81 years old. The body weight of patients was divided by standard body weight obtained from the standard body-weight table issued by Meiji life Insurance Company. This index was 1.24±0.154 (average value±standard deviation) at the sign-up time, meaning that there are many obese persons. After 12 weeks, the body weight index decreased to 1.18±0.137(average value±standard deviation).
The number of patients having normal blood pressure was 58 (of them, 31 patients were taking an antihypertensive agent).

[1] = 30 cases with diabetic complications

With `COc1c(Cl)c(C)c(C=O)c(O)c1C/C=C(C)/C=C/[C@@]1(C)[C@H](C)CCC(=O)[C@@H]1C` [4-O-methylascochlorin] the “Fasting blood sugar, change vs week 0” value (6 mg/kg, week 4) was −9.1% (n = 69), the “Serum neutral fat, change vs week 0” value (6 mg/kg, week 4) was −15.2% (n = 62) and the “Total serum cholesterol, change vs week 0” value (6 mg/kg, week 4) was −14.3% (n = 60). The Body weight (6 mg/kg, week 4) was 61.4 ± 9.63, the Fasting blood sugar (6 mg/kg, week 4, week 0: 162 ± 50.68) was 146.1 ± 41.06 and the Serum neutral fat (6 mg/kg, week 4) was 173.5 ± 71.25. For the same molecule, the Total serum cholesterol (6 mg/kg, week 4, week 0: 265.3 ± 69.75) was 238.7 ± 51.33, the “Fasting blood sugar, change vs week 0” value (6 mg/kg, week 8) was −8.9% (n = 74) and the “Serum neutral fat, change vs week 0” value (6 mg/kg, week 8) was −22.7% (n = 59). The “Total serum cholesterol, change vs week 0” value (6 mg/kg, week 8) was −18.6% (n = 61), the Body weight (6 mg/kg, week 8) was 60.7 ± 8.88 and the Fasting blood sugar (6 mg/kg, week 8, week 0: 162 ± 50.68) was 147.9 ± 46.94. The Serum neutral fat (6 mg/kg, week 8) was 162.3 ± 65.89, the Total serum cholesterol (6 mg/kg, week 8, week 0: 265.3 ± 69.75) was 228.0 ± 43.65 and the “Fasting blood sugar, change vs week 0” value (6 mg/kg, week 12) was −10.8% (n = 71). For the same molecule, the “Serum neutral fat, change vs week 0” value (6 mg/kg, week 12) was −21.8% (n = 69), the “Total serum cholesterol, change vs week 0” value (6 mg/kg, week 12) was −19.7% (n = 69) and the Body weight (6 mg/kg, week 12) was 60.3 ± 9.07. It also gave a Fasting blood sugar (6 mg/kg, week 12, week 0: 162 ± 50.68) of 142.2 ± 44.03, a Serum neutral fat (6 mg/kg, week 12) of 158.8 ± 73.28 and a Total serum cholesterol (6 mg/kg, week 12, week 0: 265.3 ± 69.75) of 220.04 ± 46.17. The “number of patients, Feeling of weariness Absent” value (from here on “number … of weariness Absent”) (4th week) was 10, the “number of patients, Large amount of urine excretion Absent” value (shortened to “number … of urine excretion Absent”) (4th week) was 16 and the “number of patients, Feeling of fatigue Absent” value (“number … of fatigue Absent” below) (4th week) was 5. The “number of patients, Throat dry Absent” value (4th week) was 16, the “number of patients, Pain in the calf of leg Absent” value (“number of patients … of leg Absent” below) (4th week) was 9 and the “number of patients, Pain in the calf of leg Present” value (from here on “number of patients … of leg Present”) (4th week) was 7. The “number of patients, Feeling of fatigue Present” value (“number … of fatigue Present” below) (4th week) was 10, the “number of patients, Feeling of weariness Present” value (“number … of weariness Present” for short) (4th week) was 15 and the “number of patients, Throat dry Present” value (4th week) was 14. The “number of patients, Large amount of urine excretion Present” value (“number … of urine excretion Present” below) (4th week) was 14, the “symptoms associated with diabetic nephropathy such as throat dry and excessive urination” value (5 excluded cases of type II diabetic patients having 10-20 year's disease history) was “disappeared from all patients” and the “number … of weariness Absent” value (8th week) was 19. For the same molecule, the “number … of urine excretion Absent” value (8th week) was 22, the “number … of fatigue Absent” value (8th week) was 13 and the “number of patients, Throat dry Absent” value (8th week) was 23. For the same molecule, the “number of patients … of leg Absent” value (8th week) was 10, the “number of patients … of leg Present” value (8th week) was 6 and the “number … of fatigue Present” value (8th week) was 2. The “number … of weariness Present” value (8th week) was 6, the “number of patients, Throat dry Present” value (8th week) was 7 and the “number … of urine excretion Present” value (8th week) was 8. For the same molecule, the “decrease of body weight compared to before medication” value (12-week medication) was 0.9 kg, the “number … of weariness Absent” value (12th week) was 24 and the “number … of urine excretion Absent” value (12th week) was 29. For the same molecule, the “number … of fatigue Absent” value (12th week) was 15, the “number of patients, Throat dry Absent” value (12th week) was 28 and the “number of patients … of leg Absent” value (12th week) was 14. For the same molecule, the “number of patients … of leg Present” value (12th week) was 2, the “number … of fatigue Present” value (12th week) was 0 and the “number … of weariness Present” value (12th week) was 1. The “number of patients, Throat dry Present” value (12th week) was 2, the “number … of urine excretion Present” value (12th week) was 1 and the “feeling of fatigue, feeling of weariness, pain in the calf of leg (diabetic neuropathy)” value [1] was “improved these symptoms with the passage of time”. For the same molecule, the “throat dry and excessive urination (symptoms of diabetic nephropathy)” value [1] was “significantly improved”, the “abnormality in the serum biological test, hematocyte test, and urine test” value (79 patients, 12-week medication) was “did not bring any abnormality” and the side effect (79 patients, 12-week medication, 6 mg/kg, transient, disappeared within a week) was “Two cases of light eruption”. For the same molecule, the “Fasting blood sugar, change vs before medication” value (High blood sugar group FBS > 130 mg/dl, 4th week) was −11.3% (n = 45), the Fasting blood sugar (High blood sugar group FBS > 130 mg/dl, 4th week, before medication 187.6 ± 40.39) was 167.3 ± 34.50 mg/dL and the “Fasting blood sugar, change vs before medication” value (High blood sugar group FBS > 130 mg/dl, 8th week) was −11.8% (n = 49). The Fasting blood sugar (High blood sugar group FBS > 130 mg/dl, 8th week, before medication 187.6 ± 40.39) was 167.8 ± 44.82 mg/dL, the “Fasting blood sugar, change vs before medication” value (High blood sugar group FBS > 130 mg/dl, 12th week) was −13.8% (n = 46) and the Fasting blood sugar (High blood sugar group FBS > 130 mg/dl, 12th week, before medication 187.6 ± 40.39) was 161.7 ± 41.79 mg/dL. For the same molecule, the “Total serum cholesterol, change vs before medication” value (High cholesterol group 300-200 mg/dl, 4th week) was −11.8% (n = 26), the Total serum cholesterol (High cholesterol group 300-200 mg/dl, 4th week, before medication 267.6 ± 23.66) was 240.8 ± 38.92 mg/dL and the “Total serum cholesterol, change vs before medication” value (High cholesterol group 300-200 mg/dl, 8th week) was −13.9% (n = 27). The Total serum cholesterol (High cholesterol group 300-200 mg/dl, 8th week, before medication 267.6 ± 23.66) was 232.4 ± 36.01 mg/dL, the “Total serum cholesterol, change vs before medication” value (High cholesterol group 300-200 mg/dl, 12th week) was −17.0% (n = 30) and the Total serum cholesterol (High cholesterol group 300-200 mg/dl, 12th week, before medication 267.6 ± 23.66) was 227.2 ± 45.36 mg/dL. The “Fasting blood sugar, change vs before medication” value (Normal blood sugar group FBS < 130 mg/dl, 4th week) was “ns (n = 24)”, the Fasting blood sugar (Normal blood sugar group FBS < 130 mg/dl, 4th week, before medication 108.8 ± 15.10) was 106.4 ± 13.48 mg/dL and the “Fasting blood sugar, change vs before medication” value (Normal blood sugar group FBS < 130 mg/dl, 8th week) was “ns (n = 25)”.
